Assay results as given in the NIST ThermoML archive (doi:10.1021/je060271a).
Where “and” joins values, the source holds several entries; their conditions need not be identical. Identical values can stand only once. ± gives the expanded uncertainty stated by the source.

Conditions: 283.15 K, Liquid, Vibrating tube method

SMILES: CCCCCC(=O)OCC(COC(=O)CCCCC)(COC(=O)CCCCC)COC(=O)CCCCC [pentaerythritol tetrahexanoate]
- mass density (5731.2 kPa): 1007.5 ± 1.2 kg/m3
- mass density (5738.3 kPa): 1007.6 ± 1.2 kg/m3
- mass density (5746.2 kPa): 1007.4 ± 1.2 kg/m3
- mass density (5753.3 kPa): 1007.5 ± 1.2 kg/m3
- mass density (5760 kPa): 1007.4 ± 1.2 kg/m3
- mass density (5767.3 kPa): 1007.5 ± 1.2 kg/m3
- mass density (5775.5 kPa): 1007.5 ± 1.2 kg/m3
- mass density (5783.9 kPa): 1007.6 ± 1.2 kg/m3
- mass density (5790.7 kPa): 1007.4 ± 1.2 kg/m3
- mass density (5797.8 kPa): 1007.5 ± 1.2 kg/m3
- mass density (5804.7 kPa): 1007.5 ± 1.2 kg/m3
- mass density (5812.8 kPa): 1007.6 ± 1.2 kg/m3
- mass density (5819.9 kPa): 1007.5 ± 1.2 kg/m3
- mass density (5826.8 kPa): 1007.5 ± 1.2 kg/m3
- mass density (5833.7 kPa): 1007.4 ± 1.2 kg/m3
- mass density (5842.2 kPa): 1007.5 ± 1.2 kg/m3
- mass density (5849.3 kPa): 1007.5 ± 1.2 kg/m3
- mass density (5856.6 kPa): 1007.5 ± 1.2 kg/m3
- mass density (5863.6 kPa): 1007.7 ± 1.2 kg/m3
- mass density (5872 kPa): 1007.5 ± 1.2 kg/m3
- mass density (5878.9 kPa): 1007.5 ± 1.2 kg/m3
- mass density (5885.8 kPa): 1007.5 ± 1.2 kg/m3
- mass density (5894.4 kPa): 1007.7 ± 1.2 kg/m3
- mass density (5901.3 kPa): 1007.5 ± 1.2 kg/m3
- mass density (5908.3 kPa): 1007.6 ± 1.2 kg/m3
- mass density (5915.7 kPa): 1007.5 ± 1.2 kg/m3
- mass density (5924.3 kPa): 1007.6 ± 1.2 kg/m3
- mass density (5930 kPa): 1007.7 ± 1.2 kg/m3
- mass density (5935.7 kPa): 1007.7 ± 1.2 kg/m3
- mass density (5942.8 kPa): 1007.6 ± 1.2 kg/m3
- mass density (5953 kPa): 1007.5 ± 1.2 kg/m3
- mass density (5960.1 kPa): 1007.6 ± 1.2 kg/m3
- mass density (5968.6 kPa): 1007.6 ± 1.2 kg/m3
- mass density (5976.4 kPa): 1007.6 ± 1.2 kg/m3
- mass density (5984.7 kPa): 1007.6 ± 1.2 kg/m3
- mass density (5991.9 kPa): 1007.6 ± 1.2 kg/m3
- mass density (5999.2 kPa): 1007.7 ± 1.2 kg/m3
- mass density (6006.6 kPa): 1007.7 ± 1.2 kg/m3
- mass density (6015.4 kPa): 1007.6 ± 1.2 kg/m3
- mass density (6022.9 kPa): 1007.7 ± 1.2 kg/m3
- mass density (6030.1 kPa): 1007.6 ± 1.2 kg/m3
- mass density (6038.8 kPa): 1007.8 ± 1.2 kg/m3
- mass density (6046 kPa): 1007.6 ± 1.2 kg/m3
- mass density (6053.1 kPa): 1007.6 ± 1.2 kg/m3
- mass density (6061.9 kPa): 1007.7 ± 1.2 kg/m3
- mass density (6069.2 kPa): 1007.6 ± 1.2 kg/m3
- mass density (6076.6 kPa): 1007.8 ± 1.2 kg/m3
- mass density (6084.1 kPa): 1007.7 ± 1.2 kg/m3
- mass density (6092.7 kPa): 1007.8 ± 1.2 kg/m3
- mass density (6100.3 kPa): 1007.7 ± 1.2 kg/m3
- mass density (6107.6 kPa): 1007.6 ± 1.2 kg/m3
- mass density (6115.2 kPa): 1007.6 ± 1.2 kg/m3
- mass density (6124 kPa): 1007.8 ± 1.2 kg/m3
- mass density (6131.6 kPa): 1007.7 ± 1.2 kg/m3
- mass density (6139 kPa): 1007.7 ± 1.2 kg/m3
- mass density (6146.6 kPa): 1007.7 ± 1.2 kg/m3
- mass density (6155.4 kPa): 1007.7 ± 1.2 kg/m3
- mass density (6163 kPa): 1007.7 ± 1.2 kg/m3
- mass density (6170.1 kPa): 1007.8 ± 1.2 kg/m3
- mass density (6179.1 kPa): 1007.7 ± 1.2 kg/m3
- mass density (6186.9 kPa): 1007.6 ± 1.2 kg/m3
- mass density (6194.5 kPa): 1007.8 ± 1.2 kg/m3
- mass density (6202.1 kPa): 1007.8 ± 1.2 kg/m3
- mass density (6209.7 kPa): 1007.9 ± 1.2 kg/m3
- mass density (6218.9 kPa): 1007.8 ± 1.2 kg/m3
- mass density (6226.1 kPa): 1007.8 ± 1.2 kg/m3
- mass density (6233.7 kPa): 1007.8 ± 1.2 kg/m3
- mass density (6242.7 kPa): 1007.8 ± 1.2 kg/m3
- mass density (6250.3 kPa): 1007.9 ± 1.2 kg/m3
- mass density (6257.9 kPa): 1007.8 ± 1.2 kg/m3
- mass density (6265.5 kPa): 1007.8 ± 1.2 kg/m3
- mass density (6274.9 kPa): 1007.7 ± 1.2 kg/m3
- mass density (6282.3 kPa): 1007.9 ± 1.2 kg/m3
- mass density (6290.1 kPa): 1007.8 ± 1.2 kg/m3
- mass density (6299.1 kPa): 1007.7 ± 1.2 kg/m3
- mass density (6306.5 kPa): 1007.9 ± 1.2 kg/m3
- mass density (6314.3 kPa): 1007.8 ± 1.2 kg/m3
- mass density (6323.1 kPa): 1007.8 ± 1.2 kg/m3
- mass density (6330.4 kPa): 1007.8 ± 1.2 kg/m3
- mass density (6338.1 kPa): 1007.8 ± 1.2 kg/m3
- mass density (6346.1 kPa): 1007.8 ± 1.2 kg/m3
- mass density (6355.4 kPa): 1007.9 ± 1.2 kg/m3
- mass density (6362.3 kPa): 1007.8 ± 1.2 kg/m3
- mass density (6369.9 kPa): 1007.8 ± 1.2 kg/m3
- mass density (6377.7 kPa): 1007.8 ± 1.2 kg/m3
- mass density (6386.6 kPa): 1007.9 ± 1.2 kg/m3
- mass density (6394.2 kPa): 1007.9 ± 1.3 kg/m3
- mass density (6401.7 kPa): 1007.9 ± 1.2 kg/m3
- mass density (6409.5 kPa): 1007.9 ± 1.2 kg/m3
- mass density (6418.4 kPa): 1007.9 ± 1.2 kg/m3
- mass density (6426 kPa): 1007.9 ± 1.2 kg/m3
- mass density (6433.3 kPa): 1007.9 ± 1.2 kg/m3
- mass density (6442.5 kPa): 1007.9 ± 1.2 kg/m3
- mass density (6450.4 kPa): 1007.9 ± 1.2 kg/m3
- mass density (6458.4 kPa): 1007.9 ± 1.2 kg/m3
- mass density (6466.9 kPa): 1007.9 ± 1.2 kg/m3
- mass density (6474.6 kPa): 1007.9 ± 1.2 kg/m3
- mass density (6481.9 kPa): 1008 ± 1.2 kg/m3
- mass density (6491.1 kPa): 1007.8 ± 1.2 kg/m3
- mass density (6498.3 kPa): 1008 ± 1.2 kg/m3
- mass density (6505.6 kPa): 1008 ± 1.2 kg/m3
- mass density (6514.4 kPa): 1007.8 ± 1.2 kg/m3
- mass density (6522 kPa): 1007.9 ± 1.2 kg/m3
- mass density (6529.2 kPa): 1007.9 ± 1.2 kg/m3
- mass density (6536.7 kPa): 1008 ± 1.2 kg/m3
- mass density (6545 kPa): 1008 ± 1.2 kg/m3
- mass density (6552.2 kPa): 1007.9 ± 1.2 kg/m3
- mass density (6559.5 kPa): 1008.1 ± 1.2 kg/m3
- mass density (6566.4 kPa): 1007.9 ± 1.2 kg/m3
- mass density (6573.6 kPa): 1008 ± 1.2 kg/m3
- mass density (6578.7 kPa): 1007.9 ± 1.2 kg/m3
- mass density (6583 kPa): 1008 ± 1.2 kg/m3
- mass density (6587.1 kPa): 1008 ± 1.2 kg/m3
- mass density (6592.1 kPa): 1007.9 ± 1.2 kg/m3
- mass density (6596.3 kPa): 1008 ± 1.2 kg/m3
- mass density (6600.4 kPa): 1008.1 ± 1.2 kg/m3
- mass density (6605.4 kPa): 1007.9 ± 1.2 kg/m3
- mass density (6609.2 kPa): 1007.9 ± 1.2 kg/m3
- mass density (6613.4 kPa): 1007.9 ± 1.2 kg/m3
- mass density (6635.7 kPa): 1008 ± 1.2 kg/m3
- mass density (6640 kPa): 1008 ± 1.2 kg/m3
- mass density (6644.1 kPa): 1008.1 ± 1.2 kg/m3
- mass density (6649 kPa): 1008 ± 1.2 kg/m3
- mass density (6674.5 kPa): 1008 ± 1.2 kg/m3
- mass density (6679.6 kPa): 1008 ± 1.2 kg/m3
- mass density (6683.5 kPa): 1008.1 ± 1.2 kg/m3
- mass density (6687.7 kPa): 1008.1 ± 1.2 kg/m3
- mass density (6692 kPa): 1008.1 ± 1.2 kg/m3
- mass density (6696.5 kPa): 1008 ± 1.2 kg/m3
- mass density (6700.6 kPa): 1008 ± 1.2 kg/m3
- mass density (6704.6 kPa): 1008 ± 1.2 kg/m3
- mass density (6708.6 kPa): 1008 ± 1.2 kg/m3
- mass density (6713.2 kPa): 1008 ± 1.2 kg/m3
- mass density (6717.2 kPa): 1008.1 ± 1.2 kg/m3
- mass density (6759.5 kPa): 1008.1 ± 1.2 kg/m3
- mass density (6769.5 kPa): 1008.2 ± 1.2 kg/m3 and 1008.1 ± 1.2 kg/m3
- mass density (6769.7 kPa): 1008.1 ± 1.2 kg/m3 and 1008 ± 1.2 kg/m3
- mass density (6769.8 kPa): 1008 ± 1.2 kg/m3 and 1008.2 ± 1.2 kg/m3 and 1008.1 ± 1.2 kg/m3
- mass density (6770 kPa): 1008.1 ± 1.2 kg/m3
- mass density (6770.2 kPa): 1008 ± 1.2 kg/m3 and 1008.1 ± 1.2 kg/m3
- mass density (6770.3 kPa): 1008.1 ± 1.2 kg/m3
- mass density (6770.4 kPa): 1008.1 ± 1.2 kg/m3
- mass density (6770.5 kPa): 1008.1 ± 1.2 kg/m3
- mass density (6770.7 kPa): 1008 ± 1.2 kg/m3
- mass density (6770.9 kPa): 1008 ± 1.2 kg/m3 and 1008.1 ± 1.2 kg/m3
